Assay results taken from ChEMBL document CHEMBL1140165, “Rotationally constrained 2,4-diamino-5,6-disubstituted pyrimidines: a new class of histamine H4 receptor antagonists with improved druglikeness and in vivo efficacy in pain and inflammation models” (J Med Chem, 2008).
Active and inactive are the calls of the source. The calls are words filed in the database; no cut-off is given here.

Experiments:
[1] = target: Cytochrome P450 3A4 (Homo sapiens, UniProt P08684); experiment: Inhibition of CYP3A4 upto 10 uM; format: ADME
[2] = test system: Mus musculus; experiment: Inhibition of clobenpropit-induced itching in ip dosed CD1/ICR mouse assessed as blockade of scratching in hind paw for 25 mins pretreated 30 mins before clobenpropit challenge; format: functional
[3] = Selectivity ratio of Ki for human histamine H4 receptor to Ki for 5HT2A receptor
[4] = Terminal volume of distribution in rat at 10 mg/kg, iv; format: ADME, organism-based; parameters: dose 10 mg/kg, route intravenous; conditions: in vivo, read-out: Vbeta
[5] = test system: Mus musculus; experiment: Antiinflammatory activity against ip dosed BALB/c mouse assessed as inhibition of zymosan-induced peritonitis after 2 hrs pretreated 30 mins before zymosan challenge; format: functional
[6] = test system: Rattus norvegicus; experiment: Antinociceptive efficacy in ip dosed spinal nerve ligated Sprague-Dawley rat assessed as reduction of neuropathic pain in paw; format: functional
[7] = Selectivity ratio of Ki for human histamine H4 receptor to Ki for 5HT1A receptor
[8] = Half life in rat at 10 mg/kg, iv; format: ADME, organism-based; parameters: dose 10 mg/kg, route intravenous; conditions: in vivo
[9] = Selectivity ratio of Ki for human histamine H4 receptor to Ki for adrenergic alpha1 receptor
[10] = test system: BMMC; experiment: Blockade of histamine-induced morphological changes in BALB/c mouse BMMC by flow cytometry; format: functional, cell-based
[11] = Metabolic stability in mouse liver microsomes; format: ADME, Microsome
[12] = Selectivity ratio of Ki for human histamine H4 receptor to Ki for histamine H2 receptor
[13] = species on record: Homo sapiens; experiment: Selectivity ratio of Ki for human histamine H4 receptor to Ki for human histamine H3 receptor
[14] = Selectivity ratio of Ki for human histamine H4 receptor to Ki for dopamine D2 receptor
[15] = Protein binding in human; format: ADME, organism-based; conditions: in vivo, read-out: PB (converted)
[16] = test system: Liver microsomes; experiment: Metabolic stability in rat liver microsomes; format: ADME, Microsome
[17] = Blood clearance in rat at 10 mg/kg, iv; format: ADME, organism-based; parameters: dose 10 mg/kg, route intravenous; conditions: whole blood
[18] = Protein binding in rat; format: ADME, organism-based; conditions: in vivo, read-out: PB (converted)
[19] = target: Cytochrome P450 2C9 (Homo sapiens, UniProt P11712); experiment: Inhibition of CYP2C9 upto 10 uM; format: ADME
[20] = Selectivity ratio of Ki for human histamine H4 receptor to Ki for 5HT1D receptor
[21] = target: Histamine H4 receptor (Rattus norvegicus) (UniProt Q91ZY1); experiment: Antagonist activity at rat histamine H4 receptor expressed in HEK293 cells assessed as inhibition of histamine-induced intracellular calcium elevation by FLIPR assay relative to histamine; format: functional, cell-based
[22] = Half life in mouse at 2.5 mg/kg, iv; format: ADME, organism-based; parameters: dose 2.5 mg/kg, route intravenous; conditions: in vivo
[23] = Ratio of drug level in brain to plasma in rat at 10 mg/kg, iv after 30 mins; format: ADME, organism-based; parameters: dose 10 mg/kg, route intravenous
[24] = Selectivity ratio of Ki for human histamine H4 receptor to Ki for histamine H1 receptor
[25] = target: Cytochrome P450 2D6 (Homo sapiens, UniProt P10635); experiment: Inhibition of CYP2D6 upto 10 uM; format: ADME
[26] = test system: Liver microsomes; experiment: Metabolic stability in human liver microsomes; format: ADME, Microsome
[27] = Fractional bioavailability in rat at 10 mg/kg, iv and 10 mg/kg, po; format: ADME, organism-based; conditions: in vivo
[28] = target: T1, Histamine H4 receptor (Homo sapiens, UniProt Q9H3N8); conditions: HEK293
[29] = target: Histamine H4 receptor (Rattus norvegicus) (UniProt Q91ZY1); experiment: (§1) Antagonist activity at rat histamine H4 receptor expressed in HEK293 cells assessed as inhibition of histamine-induced intracellular calcium elevation by FLIPR assay; format: functional, cell-based
[30] = target: T1, Histamine H4 receptor; experiment: Displacement of [3H]histamine from human histamine H4 receptor expressed in HEK293 cells; format: cell-based
[31] = target: T2, Histamine H4 receptor (Rattus norvegicus, UniProt Q91ZY1); experiment: as §1; format: functional, cell-based
[32] = target: T2, Histamine H4 receptor; experiment: Displacement of [3H]histamine from rat histamine H4 receptor expressed in HEK293 cells; format: cell-based
[33] = target: T3, Histamine H4 receptor (Mus musculus, UniProt Q91ZY2); experiment: Antagonist activity at mouse histamine H4 receptor expressed in HEK293 cells assessed as inhibition of histamine-induced intracellular calcium elevation by FLIPR assay; format: functional, cell-based
T3 sequence (Q91ZY2 whole entry): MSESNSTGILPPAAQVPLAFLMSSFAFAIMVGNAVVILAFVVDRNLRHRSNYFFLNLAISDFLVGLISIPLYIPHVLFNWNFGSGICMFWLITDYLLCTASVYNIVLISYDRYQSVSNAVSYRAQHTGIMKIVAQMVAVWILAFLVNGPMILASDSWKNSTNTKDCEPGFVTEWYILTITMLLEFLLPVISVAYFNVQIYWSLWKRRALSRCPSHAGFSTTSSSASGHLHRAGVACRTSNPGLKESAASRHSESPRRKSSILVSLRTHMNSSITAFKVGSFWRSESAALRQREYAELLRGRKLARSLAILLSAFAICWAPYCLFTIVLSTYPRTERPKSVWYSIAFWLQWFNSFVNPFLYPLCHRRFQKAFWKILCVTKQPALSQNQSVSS

Sequence of Cytochrome P450 2D6 (P10635 whole entry): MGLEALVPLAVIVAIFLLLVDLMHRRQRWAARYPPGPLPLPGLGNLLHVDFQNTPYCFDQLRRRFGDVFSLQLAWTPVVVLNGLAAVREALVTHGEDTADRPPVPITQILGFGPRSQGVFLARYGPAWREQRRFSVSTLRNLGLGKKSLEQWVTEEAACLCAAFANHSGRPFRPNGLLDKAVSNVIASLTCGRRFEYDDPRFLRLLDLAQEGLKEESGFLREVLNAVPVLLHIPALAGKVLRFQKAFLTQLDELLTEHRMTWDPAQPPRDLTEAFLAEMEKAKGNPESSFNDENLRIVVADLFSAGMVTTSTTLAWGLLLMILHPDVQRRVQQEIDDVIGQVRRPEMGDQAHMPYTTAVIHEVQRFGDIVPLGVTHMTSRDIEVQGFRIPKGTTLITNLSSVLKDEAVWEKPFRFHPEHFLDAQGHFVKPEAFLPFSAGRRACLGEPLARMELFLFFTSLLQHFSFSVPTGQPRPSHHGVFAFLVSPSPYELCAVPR
T2 sequence (Q91ZY1 whole entry): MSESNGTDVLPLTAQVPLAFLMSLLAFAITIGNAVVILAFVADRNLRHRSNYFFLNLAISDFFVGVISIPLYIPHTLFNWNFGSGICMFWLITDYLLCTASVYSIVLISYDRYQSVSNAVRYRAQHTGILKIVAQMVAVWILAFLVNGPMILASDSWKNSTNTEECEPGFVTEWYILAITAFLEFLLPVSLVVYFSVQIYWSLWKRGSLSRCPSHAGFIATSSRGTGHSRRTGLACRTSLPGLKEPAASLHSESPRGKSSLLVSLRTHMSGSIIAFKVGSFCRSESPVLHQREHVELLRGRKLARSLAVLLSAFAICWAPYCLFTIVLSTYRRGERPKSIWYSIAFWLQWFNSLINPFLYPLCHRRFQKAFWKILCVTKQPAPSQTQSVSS
Sequence of Histamine H4 receptor (Rattus norvegicus) (Q91ZY1 whole entry): as above
Sequence of Cytochrome P450 2C9 (P11712 whole entry): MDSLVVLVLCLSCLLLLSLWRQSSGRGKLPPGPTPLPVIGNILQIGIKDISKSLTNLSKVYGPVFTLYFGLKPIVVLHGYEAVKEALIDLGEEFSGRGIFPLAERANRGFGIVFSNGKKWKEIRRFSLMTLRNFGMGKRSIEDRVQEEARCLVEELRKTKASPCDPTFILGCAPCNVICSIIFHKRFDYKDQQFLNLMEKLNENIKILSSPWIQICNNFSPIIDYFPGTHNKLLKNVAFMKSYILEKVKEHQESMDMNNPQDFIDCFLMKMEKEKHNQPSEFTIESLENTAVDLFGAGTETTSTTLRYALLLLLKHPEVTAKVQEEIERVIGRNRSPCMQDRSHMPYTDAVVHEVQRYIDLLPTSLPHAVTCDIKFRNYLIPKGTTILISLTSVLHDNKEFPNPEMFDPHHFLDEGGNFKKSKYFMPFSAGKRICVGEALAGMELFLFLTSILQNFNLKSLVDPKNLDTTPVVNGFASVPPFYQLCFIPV
Sequence of Cytochrome P450 3A4 (P08684 whole entry): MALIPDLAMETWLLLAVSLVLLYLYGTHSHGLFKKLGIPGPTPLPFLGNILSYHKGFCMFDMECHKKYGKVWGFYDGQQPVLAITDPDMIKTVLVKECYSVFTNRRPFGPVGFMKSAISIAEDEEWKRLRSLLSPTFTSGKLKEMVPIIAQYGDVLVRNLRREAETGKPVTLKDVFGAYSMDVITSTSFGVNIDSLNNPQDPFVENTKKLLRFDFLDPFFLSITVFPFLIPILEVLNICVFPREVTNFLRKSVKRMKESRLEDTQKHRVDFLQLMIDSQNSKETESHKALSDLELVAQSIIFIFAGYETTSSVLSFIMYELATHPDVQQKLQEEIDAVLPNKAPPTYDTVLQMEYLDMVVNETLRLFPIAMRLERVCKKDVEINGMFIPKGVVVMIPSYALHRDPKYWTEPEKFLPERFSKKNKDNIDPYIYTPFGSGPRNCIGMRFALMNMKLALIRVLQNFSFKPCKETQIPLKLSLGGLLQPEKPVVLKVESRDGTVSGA

| Activity [1] | Ratio Ki [3] | Vd [4] [L/kg] | Ratio Ki [7] | half-life [8] [min] | Ratio Ki [9] | Stability [11] [pmol/min/mg] | fraction unbound [15] | Stability [16] [pmol/min/mg] | fraction unbound [18] | Activity [19] | Efficacy [21] [%] | Activity [25] | Stability [26] [pmol/min/mg] | pKb [28] | EC50 [31] [nM] | Ki [32] [nM] | SMILES | ED50 [2] [µmol/kg] | ED50 [5] [µmol/kg] | Activity [10] | further results |
| --- | --- | --- | --- | --- | --- | --- | --- | --- | --- | --- | --- | --- | --- | --- | --- | --- | --- | --- | --- | --- | --- |
| Not Active | 120 | 7.1 | 1.2 | 24 | 330 | 43.1 | 0.65 | 94.5 | 0.62 | Not Active | 64 | Not Active | 25.9 | – | – | – | CN1CCN(c2cc(-c3ccc(C#N)cc3)nc(N)n2)CC1 | 25 | 66 | Active | ED50 [6]: 115 µmol/kg; Ratio Ki [12]: > 260; Ratio Ki [13]: 30; Ratio Ki [14]: > 140; clearance [17]: 172 mL/min/kg; Ratio Ki [20]: 3.5; half-life [22]: 12 min; Kp at 0.5 h [23]: 20; Ratio Ki [24]: > 170; bioavailability [27]: 31% |
| – | – | – | – | – | – | – | – | – | – | – | – | – | – | 7.6 | – | – | CN[C@@H]1CCN(c2nc(N)nc3c2CCCCCc2ccccc2-3)C1 | – | – | inactive | pKb [29]: 7.25 |
| Not Active | 2.2 | 22 | 11 | 192 | 125 | 10.9 | 0.41 | 108 | 0.24 | Not Active | – | Not Active | 28.5 | 7.24 | 55 | 4.47 | Nc1nc2c(c(N3CCNCC3)n1)CCCCC2c1ccccc1 (stereo unspecified) | 10 | 79 | Active | Ki ([30]; read-out: Ki): 39.8 nM; Ratio Ki [12]: > 230; Ratio Ki [13]: 56; Ratio Ki [14]: 480; clearance [17]: 80 mL/min/kg; Ratio Ki [20]: 81; EC50 [33]: 45.7 nM; Ratio Ki [24]: > 160; bioavailability [27]: 31% |
| Not Active | – | – | – | – | – | 43.6 | 0.72 | 65.8 | 0.31 | Not Active | 96 | Not Active | 18.7 | 8.75 | 20 | 4.79 | Nc1nc2c(c(N3CCNCC3)n1)Cc1ccccc1-2 | – | – | – | Ki ([30]; read-out: pKi (converted)): 12.9 nM |
| – | – | – | – | – | – | – | – | – | – | – | – | – | – | 8.29 | – | – | CN[C@@H]1CCN(c2nc(N)nc3c2CCc2ccccc2-3)C1 | – | – | – | pKb [29]: 7.66 |
| Not Active | – | – | – | – | – | 18.4 | 0.59 | 104 | 0.73 | Not Active | 52 | Not Active | 45.9 | 7.58 | 24 | 9.12 | Nc1nc2c(c(N3CCNCC3)n1)CCc1ccccc1-2 | – | – | – | Ki ([30]; read-out: pKi (converted)): 52.5 nM |
